From patent US11498903B2 (BRISTOL-MYERS SQUIBB COMPANY, priority 2017, dated 2022)
Read-outs that look alike come from different tables or passages of the source.

Molecular target: T1, human APJ receptor (Homo sapiens, UniProt P35414)
T1 construct: expressed in transfected cells
T1 sequence (P35414 1-380): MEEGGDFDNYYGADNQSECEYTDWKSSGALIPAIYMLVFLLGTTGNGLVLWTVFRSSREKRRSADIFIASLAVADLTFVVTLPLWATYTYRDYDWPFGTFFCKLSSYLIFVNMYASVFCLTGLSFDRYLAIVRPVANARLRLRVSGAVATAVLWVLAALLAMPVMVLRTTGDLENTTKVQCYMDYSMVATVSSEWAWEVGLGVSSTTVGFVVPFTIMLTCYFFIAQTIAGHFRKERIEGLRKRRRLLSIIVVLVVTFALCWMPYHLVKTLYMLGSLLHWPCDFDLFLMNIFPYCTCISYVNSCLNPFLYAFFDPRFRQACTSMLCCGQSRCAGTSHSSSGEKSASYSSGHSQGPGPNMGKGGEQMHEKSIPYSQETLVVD
Experiment: Intracellular cAMP accumulation assay (APJ hcAMP, HTRF)
Assay type: cell-based
Summary of the method: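 Inhibition of 2 μM forskolin-driven cAMP ([…] present) measured by HTRF in 5,000 HEK293 cells/well stably expressing human APJ, 30 min, room temperature. EC50 came from a variable-slope sigmoidal fit; Ymax was relative to (Pyr1)apelin-13 set at 100%.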

[1] = Table 1, HEK293 cells stably expressing human APJ receptor, inhibition of forskolin-mediated cAMP production, read-out: APJ hcAMP EC50
[2] = human APJ, cAMP, potency range class, read-out: APJ cAMP Human EC50

EC50 [1] [nM] | EC50 [2] [nM] | Molecule | EC50 (Table 3, HEK293 cells stably expressing human APJ receptor, read-out: APJ cAMP Human EC50) [nM]
101 to 500 | – | O=C(NC(CC1CCOCC1)c1ccccc1)c1ccc(-c2cc(Cl)ccc2-c2nc3ccccc3[nH]2)c(C(=O)O)c1 (stereo not drawn) [Example 217, 2′-(1H-1,3-benzodiazol-2-yl)-5′-chloro-4-{[2-(oxan-4-yl)-1-phenylethyl]carbamoyl}-[1,1′-biphenyl]-2-carboxylic acid] | –
< 10 | < 10 | CCCC(NC(=O)c1ccc(-c2cc(Cl)ccc2-c2nc3cc(OC)ccc3[nH]2)c(C(=O)O)c1)c1ccccc1OC (stereo not drawn) [Example 218, 5′-chloro-2′-(5-methoxy-1H-1,3-benzodiazol-2-yl)-4-{[1-(2-methoxyphenyl)butyl]carbamoyl}-[1,1′-biphenyl]-2-carboxylic acid] | –
< 10 | < 10 | CCCC(NC(=O)c1ccc(-c2c(Cl)cccc2-c2nc3ccccc3[nH]2)c(C(=O)O)c1)c1ccccc1OC [Example 225, (S)-2′-(1H-1,3-benzodiazol-2-yl)-6′-chloro-4-{[1-(2-methoxyphenyl)butyl]carbamoyl}-[1,1′-biphenyl]-2-carboxylic acid] | –
< 10 | < 10 | CCCC(NC(=O)c1ccc(-c2cc(Cl)ccc2-c2nc3cc(C(C)(C)C)ccc3[nH]2)c(C(=O)O)c1)c1ccccc1OC (stereo not drawn) [Example 241, 2′-(5-tert-butyl-1H-1,3-benzodiazol-2-yl)-5′-chloro-4-{[1-(2-methoxyphenyl)butyl]carbamoyl}-[1,1′-biphenyl]-2-carboxylic acid] | –

The remaining lines, values behind:

Molecule | EC50 [1] [nM] | EC50 [2] [nM] | EC50 (Table 3, HEK293 cells stably expressing human APJ receptor, read-out: APJ cAMP Human EC50) [nM]
O=C(NC(CC1CCOCC1)c1ccccc1)c1ccc(-c2cc(Cl)ccc2-c2nc3ccccc3[nH]2)c(C(=O)O)c1 (stereo not drawn) [Example 216, 2′-(1H-1,3-benzodiazol-2-yl)-5′-chloro-4-{[2-(oxan-4-yl)-1-phenylethyl]carbamoyl}-[1,1′-biphenyl]-2-carboxylic acid] | 101 to 500 | 101 to 500 | –
O=C(N[C@H](c1ccc(F)cc1)C1CC1)c1ccc(-c2c(Cl)cccc2-c2nc3ccccc3[nH]2)c(C(=O)O)c1 [Example 219, (S)-2′-(1H-1,3-benzodiazol-2-yl)-6′-chloro-4-{[cyclopropyl(4-fluorophenyl)methyl]carbamoyl}-[1,1′-biphenyl]-2-carboxylic acid] | < 10 | < 10 | –
O=C(N[C@@H](CCC(F)(F)F)c1ccccc1)c1ccc(-c2c(Cl)cccc2-c2nc3ccccc3[nH]2)c(C(=O)O)c1 [Example 226, (S)-2′-(1H-1,3-benzodiazol-2-yl)-6′-chloro-4-[(4,4,4-trifluoro-1-phenylbutyl)carbamoyl]-[1,1′-biphenyl]-2-carboxylic acid] | < 10 | < 10 | –
COC[C@@H](NC(=O)c1ccc(-c2c(Cl)cccc2-c2nc3ccccc3[nH]2)c(C(=O)O)c1)C1CC1 [Example 230, (S)-2′-(1H-1,3-benzodiazol-2-yl)-6′-chloro-4-[(1-cyclopropyl-2-methoxyethyl)carbamoyl]-[1,1′-biphenyl]-2-carboxylic acid] | 101 to 500 | 101 to 500 | –
COc1cc2nc(-c3cccc(Cl)c3-c3ccc(C(=O)N[C@H](c4ccc(F)cc4)C4CC4)cc3C(=O)O)[nH]c2cc1F [Example 232, (S)-2′-chloro-4-{[cyclopropyl(4-fluorophenyl)methyl]carbamoyl}-6′-(6-fluoro-5-methoxy-1H-1,3-benzodiazol-2-yl)-[1,1′-biphenyl]-2-carboxylic acid] | < 10 | < 10 | –
(S)-2′-chloro-4-{[(1R)-1-cyclohexylbutyl]carbamoyl}-6′-(6-fluoro-5-methoxy-1H-1,3-benzodiazol-2-yl)-[1,1′-biphenyl]-2-carboxylic acid [Example 160] | < 10 | < 10 | –
(S)-2′-chloro-6′-(5- chloro-6-methyl-1H- 1,3-benzodiazol-2- yl)-4-{[(1R)-1- phenylbutyl] carbamoyl}- [1,1′-biphenyl]-2- carboxylic acid [Example 91] | < 10 | – | < 10
